According to PubChem BioAssay AID248 (DTP/NCI, 2004):
Toxic doses and inconclusive results are not listed. Cut-off read from the data, not from the text of the source: active = T/C of 150% or more; inactive = T/C below 125%.

Tested on: L1210 leukemia ip in BDF1 mice, survival T/C
Assay: NCI In Vivo Anticancer Drug Screen. Data for tumor model L1210 Leukemia (intraperitoneal) in B6D2F1 (BDF1) mice
Details: endpoint: mean survival time, higher = longer survival
Summary of the method: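 Mice bearing the transplanted tumor received compound or vehicle. Survival of the treated group was divided by that of the vehicle-treated control group to give the ratio.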

[1] = dose: 12.5 mg/kg/injection, schedule: Q01DX009 (ip), vehicle: Klucel (hydroxypropylcellulose) (HPC)
[2] = dose: 25.0 mg/kg/injection, schedule: Q01DX009 (ip), vehicle: Klucel (hydroxypropylcellulose) (HPC)
[3] = dose: 100.0 mg/kg/injection, schedule: Q01DX009 (ip), vehicle: saline with Tween-80
[4] = dose: 200.0 mg/kg/injection, schedule: Q01DX009 (ip), vehicle: saline with Tween-80
[5] = dose: 400.0 mg/kg/injection, schedule: Q01DX009 (ip), vehicle: saline with Tween-80
[6] = dose: 50.0 mg/kg/injection, schedule: Q01DX009 (ip), vehicle: Klucel (hydroxypropylcellulose) (HPC)
[7] = dose: 100.0 mg/kg/injection, schedule: Q01DX009 (ip), vehicle: Klucel (hydroxypropylcellulose) (HPC)
[8] = dose: 100.0 mg/kg/injection, schedule: Q04DX003 (ip), vehicle: Klucel (hydroxypropylcellulose) (HPC)
[9] = dose: 200.0 mg/kg/injection, schedule: Q01DX009 (ip), vehicle: Klucel (hydroxypropylcellulose) (HPC)
[10] = dose: 200.0 mg/kg/injection, schedule: Q04DX003 (ip), vehicle: Klucel (hydroxypropylcellulose) (HPC)
[11] = dose: 400.0 mg/kg/injection, schedule: Q04DX003 (ip), vehicle: Klucel (hydroxypropylcellulose) (HPC)
[12] = dose: 50.0 mg/kg/injection, schedule: Q04DX003 (ip), vehicle: Klucel (hydroxypropylcellulose) (HPC)
[13] = dose: 100.0 mg/kg/injection, schedule: Q01DX001 (ip), vehicle: saline with Tween-80
[14] = dose: 200.0 mg/kg/injection, schedule: Q01DX001 (ip), vehicle: saline with Tween-80
[15] = dose: 400.0 mg/kg/injection, schedule: Q01DX001 (ip), vehicle: saline with Tween-80
[16] = dose: 100.0 mg/kg/injection, schedule: Q04DX002 (ip), vehicle: Klucel (hydroxypropylcellulose) (HPC)
[17] = dose: 200.0 mg/kg/injection, schedule: Q04DX002 (ip), vehicle: Klucel (hydroxypropylcellulose) (HPC)
[18] = dose: 400.0 mg/kg/injection, schedule: Q04DX002 (ip), vehicle: Klucel (hydroxypropylcellulose) (HPC)
[19] = dose: 100.0 mg/kg/injection, schedule: Q01DX001 (ip), vehicle: Klucel (hydroxypropylcellulose) (HPC)

Measured: T/C

NC(=Nc1ccccc1)Nc1ccccc1
inactive: dose: 6.25 mg/kg/injection, schedule: Q01DX009 (ip), vehicle: Klucel (hydroxypropylcellulose) (HPC) 101 % of control | [1] 101 % of control | dose: 12.5 mg/kg/injection, schedule: Q01DX009 (ip), vehicle: saline with Tween-80 97 % of control | [2] 89 % of control | dose: 25.0 mg/kg/injection, schedule: Q01DX009 (ip), vehicle: saline with Tween-80 102 % of control | dose: 35.0 mg/kg/injection, schedule: Q01DX009 (ip), vehicle: saline 101 % of control | dose: 50.0 mg/kg/injection, schedule: Q01DX009 (ip), vehicle: saline with Tween-80 97 % of control

CC(=O)[O][Pb]([CH2]CC(C)C)([CH2]CC(C)C)[CH2]CC(C)C
inactive: dose: 0.78 mg/kg/injection, schedule: Q01DX009 (ip), vehicle: saline with Tween-80 98 % of control | dose: 0.78 mg/kg/injection, schedule: Q04DX002 (ip), vehicle: saline with Tween-80 95 % of control | dose: 1.56 mg/kg/injection, schedule: Q01DX009 (ip), vehicle: saline with Tween-80 97 % of control | dose: 1.56 mg/kg/injection, schedule: Q04DX002 (ip), vehicle: saline with Tween-80 92 % of control | dose: 3.12 mg/kg/injection, schedule: Q01DX009 (ip), vehicle: saline with Tween-80 95 % of control | dose: 3.12 mg/kg/injection, schedule: Q04DX002 (ip), vehicle: saline with Tween-80 92 % of control

CC(C)COC(=O)Nc1cccc(O)c1
inactive: [3] 91 % of control | [4] 90 % of control | [5] 94 % of control

COc1ccc(-n2c(=O)c(N=Nc3ccc(Cl)cc3)c(O)n(-c3ccccc3C)c2=S)cc1
inactive: dose: 37.5 mg/kg/injection, schedule: Q01DX001 (ip), vehicle: Klucel (hydroxypropylcellulose) (HPC) 96 % of control | dose: 75.0 mg/kg/injection, schedule: Q01DX001 (ip), vehicle: Klucel (hydroxypropylcellulose) (HPC) 90 % of control | dose: 150.0 mg/kg/injection, schedule: Q01DX001 (ip), vehicle: Klucel (hydroxypropylcellulose) (HPC) 92 % of control

O=[N+]([O-])c1cc([N+](=O)[O-])c(Nc2cccc3ccccc23)c([N+](=O)[O-])c1
inactive: [6] 94 % of control | [7] 99 % of control | [8] 100 % of control | [9] 100 % of control | [10] 102 % of control | [11] 102 % of control

CN(C)c1ccc(-c2nc3ccccc3s2)cc1
inactive: [12] 105 % of control | [8] 100 % of control | [10] 96 % of control

CC(=O)Oc1c2ccsc2cc2ccsc12
inactive: [13] 100 % of control | [14] 96 % of control | [15] 96 % of control

O=C(CCN1CC=C(c2ccccc2)CC1)NCc1ccccc1
inactive: [3] 95 % of control | dose: 100.0 mg/kg/injection, schedule: Q04DX003 (ip), vehicle: saline with Tween-80 98 % of control | [4] 93 % of control | dose: 200.0 mg/kg/injection, schedule: Q04DX003 (ip), vehicle: saline with Tween-80 100 % of control | [5] 95 % of control | dose: 400.0 mg/kg/injection, schedule: Q04DX003 (ip), vehicle: saline with Tween-80 100 % of control

CC(=O)OC1CCC2(C)C(=CCC3C2CCC2(C)c4c(c(-c5ccccc5)nn4-c4ccccc4)CC32)C1 (centres undefined)
inactive: [16] 98 % of control | [17] 90 % of control | [18] 95 % of control

Cn1cc(C(=Nc2ccccc2)Nc2ccccc2)c2ccccc21
inactive: dose: 75.0 mg/kg/injection, schedule: Q01DX001 (ip), vehicle: saline 94 % of control | dose: 150.0 mg/kg/injection, schedule: Q01DX001 (ip), vehicle: saline 94 % of control | dose: 300.0 mg/kg/injection, schedule: Q01DX001 (ip), vehicle: saline 89 % of control

CCOC(=O)C1(C)Nc2ccc3ccccc3c2NC1=O (centres undefined)
inactive: [16] 93 % of control | [17] 101 % of control | [18] 101 % of control

CCCCCCCCCCNc1ccc(NCCCCCCCCCC)cc1
inactive: [7] 108 % of control | [8] 95 % of control | [9] 109 % of control | [10] 102 % of control | dose: 400.0 mg/kg/injection, schedule: Q01DX009 (ip), vehicle: Klucel (hydroxypropylcellulose) (HPC) 90 % of control | [11] 105 % of control

CN1CCN(Cc2cc(C(C)(C)C)cc(-c3ccccc3)c2O)CC1
inactive: dose: 100.0 mg/kg/injection, schedule: Q04DX003 (ip), vehicle: saline 92 % of control | dose: 200.0 mg/kg/injection, schedule: Q04DX003 (ip), vehicle: saline 102 % of control | dose: 400.0 mg/kg/injection, schedule: Q04DX003 (ip), vehicle: saline 110 % of control

CC(=O)OC1CC2c3ccccc3C1c1cccc[n+]12 (centres undefined)
inactive: dose: 12.5 mg/kg/injection, schedule: Q01DX001 (ip), vehicle: Klucel (hydroxypropylcellulose) (HPC) 97 % of control | [1] 100 % of control | dose: 25.0 mg/kg/injection, schedule: Q01DX001 (ip), vehicle: Klucel (hydroxypropylcellulose) (HPC) 101 % of control | [2] 102 % of control | dose: 25.0 mg/kg/injection, schedule: Q04DX003 (ip), vehicle: Klucel (hydroxypropylcellulose) (HPC) 101 % of control | dose: 50.0 mg/kg/injection, schedule: Q01DX001 (ip), vehicle: Klucel (hydroxypropylcellulose) (HPC) 105 % of control | [6] 104 % of control | [12] 94 % of control | dose: 75.0 mg/kg/injection, schedule: Q01DX009 (ip), vehicle: Klucel (hydroxypropylcellulose) (HPC) 88 % of control | [19] 101 % of control

NC(=S)N/N=C(\c1ccc(Br)cc1)C1CC1
inactive: dose: 2.0 mg/kg/injection, schedule: Q01DX Z (ip), vehicle: carboxymethylcellulose (CMC) 105 % of control | dose: 4.0 mg/kg/injection, schedule: Q01DX Z (ip), vehicle: carboxymethylcellulose (CMC) 102 % of control | dose: 4.0 mg/kg/injection, schedule: Q01DX Z (oral), vehicle: carboxymethylcellulose (CMC) 115 % of control | dose: 8.0 mg/kg/injection, schedule: Q01DX Z (ip), vehicle: carboxymethylcellulose (CMC) 113 % of control | dose: 8.0 mg/kg/injection, schedule: Q01DX Z (oral), vehicle: carboxymethylcellulose (CMC) 115 % of control | dose: 16.0 mg/kg/injection, schedule: Q01DX Z (oral), vehicle: carboxymethylcellulose (CMC) 107 % of control

CC(C)(C)OC(=O)N1CCCC1C(=O)O (centres undefined)
inactive: dose: 100.0 mg/kg/injection, schedule: Q01DX001 (ip), vehicle: carboxymethylcellulose (CMC) 109 % of control | dose: 200.0 mg/kg/injection, schedule: Q01DX001 (ip), vehicle: carboxymethylcellulose (CMC) 104 % of control | dose: 400.0 mg/kg/injection, schedule: Q01DX001 (ip), vehicle: carboxymethylcellulose (CMC) 95 % of control

CCN(C(=S)c1ccccc1)c1ccc(C(=O)OC)cc1
inactive: dose: 75.0 mg/kg/injection, schedule: Q04DX003 (ip), vehicle: saline 100 % of control | [19] 100 % of control | dose: 150.0 mg/kg/injection, schedule: Q04DX003 (ip), vehicle: saline 102 % of control | dose: 200.0 mg/kg/injection, schedule: Q01DX001 (ip), vehicle: Klucel (hydroxypropylcellulose) (HPC) 104 % of control | dose: 300.0 mg/kg/injection, schedule: Q04DX003 (ip), vehicle: saline 97 % of control | dose: 400.0 mg/kg/injection, schedule: Q01DX001 (ip), vehicle: Klucel (hydroxypropylcellulose) (HPC) 100 % of control

CC(=O)Nc1ccc(S(=O)(=O)C(Cl)c2ccccc2)cc1 (centres undefined)
inactive: dose: 100.0 mg/kg/injection, schedule: Q01DX001 (ip), vehicle: saline 103 % of control | dose: 200.0 mg/kg/injection, schedule: Q01DX001 (ip), vehicle: saline 103 % of control | dose: 400.0 mg/kg/injection, schedule: Q01DX001 (ip), vehicle: saline 98 % of control

OC1(c2ccccc2)C2=CC(c3ccccc3)=C(c3ccccc3)CC2C(c2ccccc2)C1c1ccccc1 (centres undefined)
inactive: [13] 100 % of control | [14] 91 % of control | [15] 96 % of control

O=C(O)COc1ccc(F)c(F)c1
inactive: [16] 90 % of control | [17] 104 % of control | [18] 93 % of control
